{"source": "patent US10175228B2", "about": "“Method of using transmembrane channel-like protein 6 (TMC6) protein to identify substances affecting salty taste” (priority 2016, dated 2019)", "key": {"[1]": {"system": "chimeric TMC6 protein of mouse and Aotus nancymaae", "test": "Calcium imaging of CHO-K1 cells expressing the mouse/Aotus nancymaae chimeric TMC6 gene", "type": "cell-based", "settings": "stimulation with high-concentration NaCl solution for 60 sec, 21 cells", "excerpt": "The nucleotide sequence of the CDS of the chimeric TMC6 gene cloned into Mouse-Aotus nancymaae chimera TMC6 2A-YC260TM in pcDNA3.1(−) was confirmed to consist of an upstream part identical to positions 1 to 45 of the nucleotide sequence of mRNA of the mouse TMC6 gene (NM_145439) and a downstream part identical to positions 52 to 2421 of the nucleotide sequence of mRNA of the Aotus nancymaae TMC6 gene (XM 012453598) registered in NCBI by sequencing analysis. The chimeric TMC6 gene encodes a chimeric TMC6 protein consisting of the amino acid sequence of positions 1 to 15 of the mouse TMC6 protein (SEQ ID NO: 26) and the amino acid sequence of positions 18 to 807 of the Aotus nancymaae TMC6 protein (SEQ ID NO: 1). The nucleotide sequence of Mouse-Aotus nancymaae chimera TMC6 2A-YC260TM in pcDNA3.1(−) is shown as SEQ ID NO: 63. […]\nCHO-K1 cells were transfected with Macaca mulatta TMC6-2A-YC260TM in pcDNA3.1(−), Pongo abelii TMC6-2A-YC260TM in pcDNA3.1(−), Mouse-Aotus nancymaae chimera TMC6 2A-YC260TM in pcDNA3.1(−), or YC2.60-pcDNA, to prepare TMC6-expressing cells (cells expressing the Macaca mulatta TMC6 gene, the Pongo abelii TMC6 gene, or the mouse/Aotus nancymaae chimeric TMC6 gene, in combination with the YC2.60 gene) and control cells (cells expressing the YC2.60 gene). The prepared cells were stimulated, and activation of the cells was measured. […]"}, "[2]": {"system": "C57BL/6J mouse and knockout mice", "test": "NaCl palatability test, two-bottle choice method", "settings": "for NaCl palatability: 96 hr", "description": "Thus, an NaCl palatability test was carried out by using the wild-type C57BL/6J mouse and the knockout mice obtained in Example 1.\nThe NaCl palatability test was carried out by the two-bottle choice method (abbreviated as “two-bottle method”) for 96 hr. That is, two 11-mL plastic bottles (water dispenser bottles) were filled with a test aqueous solution, moisture outside of the bottles was wiped out and dried, the weights thereof (the total weight of the bottle, a water dispenser tube made of stainless, and the aqueous solution, for each bottle) were measured, and the bottles were inserted into a metal lid of a breeding cage at an angle of approximately 30 degrees. […] The positions of the bottles were laterally interchanged every day. The weights of the bottles were measured every 24 hours, to calculate the reduced amounts of the aqueous solutions. Separately, four water dispenser bottles filled with deionized water were located on a vacant breeding cage, and changes of the weights were measured every day, to calculate an average value of the sum of the evaporation amount of the aqueous solution and the dropped amount of the aqueous solution due to experimental operation (approximately 0.05 g to 0.06 g). To prevent dropping of the aqueous solutions due to rocking of the lid of the breeding cage and the bottles by the mice, a transparent acryl board (10 cm×15 cm×1 cm, 180 g) was located on the bottles as a weight. The average value of the sum of the evaporation and dropped amounts of each aqueous solution was subtracted from the reduced amount of the same, and the resulting value was regarded as the intake amount of each aqueous solution. The ratio of the intake amount of the NaCl aqueous solution with respect to the total intake amount of the control aqueous solution and the NaCl aqueous solution was calculated and regarded as NaCl palatability."}}, "data": [{"smiles": "[Cl-].[Na+]", "note": "[NaCl, sodium chloride]", "values": [{"measurement": "change of average YFP/CFP value (intracellular calcium concentration)", "setting": "[1]", "result": "increase"}, {"measurement": "NaCl palatability", "setting": "[2]; hetero knockout mouse of the TMC6 gene (Tmc6 +/−), 100 mM NaCl + 30 μM amiloride", "result": "high"}, {"measurement": "NaCl palatability", "setting": "[2]; homo knockout mouse of the TMC3 gene (Tmc3 −/−), 100 mM NaCl + 30 μM amiloride", "result": "high"}, {"measurement": "NaCl palatability", "setting": "[2]; homo knockout mouse of the TMC6 gene (Tmc6 −/−), 100 mM NaCl + 30 μM amiloride, compared with the other subject mice (P<0.05 or P<0.01)", "result": "remarkably reduced"}, {"measurement": "NaCl palatability", "setting": "[2]; homo knockout mouse of the TMC8 gene (Tmc8 −/−), 100 mM NaCl + 30 μM amiloride", "result": "high"}, {"measurement": "palatability for a NaCl aqueous solution", "setting": "[2]; wild-type C57BL/6J mouse fed D12450B (0.1% sodium), without amiloride", "result": "slightly higher than that for water"}, {"measurement": "NaCl palatability", "setting": "[2]; wild-type C57BL/6J mouse, 100 mM NaCl, in the presence of 30 μM amiloride", "result": "remarkable and high"}]}]}
